Results as given in PubChem BioAssay AID179 (DTP/NCI, 2004).
Activity calls are given as the source filed them.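 The calls were made as follows: active = compounds giving half or more protection of infected cells from virus-caused growth loss, again on retest; inactive = the rest.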

Tested on: CEM cells HIV-1 protection, formazan growth assay
Experiment: NCI AIDS Antiviral Assay
Conditions: for IC50: measured here: growth of uninfected CEM cells
How it was run: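 Soluble formazan readout of cell growth; CEM cells ± HIV-1; 5 drug concs. ≥50% protection → retest; ≥50% again = moderately active; reproducible 100% = confirmed active.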

SMILES | EC50 | IC50 | outcome
OC1[C@H]([C@H]2CCCC[C@@H]2O)CCC[C@@H]1[C@@H]1CCCC[C@H]1O (some centres not stated) | > 170 µM | > 170 µM | 
CCOC(=O)C1C(c2ccc(OC)cc2)c2c([nH]n(-c3ccccc3)c2=O)CC1(C)O (configuration not stated) |  |  | inactive
COc1cc2c(cc1OC)C1Cc3cc(OC)c(OC)cc3C(C2)O1 | > 200 µM | 105 µM | 
CCOC(=O)c1c[nH]c(C(=O)C=[N+]=[N-])c1C1CCN(CC)C1=S (configuration not stated) | > 200 µM | 138 µM | 
c1ccc([S+]([CH2][Hg][CH2][S+](c2ccccc2)c2ccccc2)c2ccccc2)cc1 | > 30.2 µM | 10 µM | 
COC(=O)CC1NC(=O)C1C(C)(OC)OC (configuration not stated) | 191 µM | 251 µM | 
CCc1c(Cc2ccccc2)n(COCCSc2ccccc2)c(=O)[nH]c1=O | 3.24 µM | 26.9 µM | 
O[C@@H]1CO[C@H]2[C@@H]1OC[C@@H]2O | > 200 µM | > 200 µM | 
O=C(O)c1c2c(cc3c1CC1(Cc4ccccc4C1)C3)CCC2 | > 200 µM | 45.7 µM | 
CC(C)C[P+](c1ccccc1)(c1ccccc1)c1ccccc1 | > 20 µM | 2.19 µM | 
COC1=NN2C(OC)(c3ccccc3)c3c(-c4ccccc4)sc(-c4ccccc4)c3C2(c2ccccc2)S1 (configuration not stated) |  |  | inactive
COC(=O)[C@]1(C)CCC[C@]2(C)c3ccc(C(C)C)cc3C(=O)C[C@@H]12 | > 200 µM | 31.6 µM | 
O=C1c2cc3c(cc2CC1Br)CCC3 (configuration not stated) | > 20 µM | 0.38 µM | 
CC(C)=CCC[C@@H](C)/C=C/C=C(\C)C(=O)CC[C@@H]1CC[N@+]2(C)CCCC[C@H]12 | > 200 µM | 46.8 µM | 
Cc1ccc2nc(NC(=O)/C(Cc3nc4ccc(Cl)cc4[nH]c3=O)=N\NC(C)(C)C)sc2c1 | > 74.1 µM | > 74.1 µM | 
CN(C)CCNc1c([N+](=O)[O-])sc2ccc(Cl)cc12 | > 200 µM | 16.6 µM | 
C=C1C(C(=O)OC)[C@H]1C(=O)OC (some centres not stated) | 5.5 µM | > 200 µM | 
N#Cc1c(N=C/C=C/c2ccccc2)c(C(=O)Nc2ccccc2)n2c1CCCC2 | > 200 µM | > 200 µM | 

SMILES | EC50 | IC50 | outcome
O=C(CCCN1CCC2(CC1)C(=O)NCN2c1ccccc1)c1ccc(F)cc1 | > 200 µM | 13.5 µM | 
NC(N)=N/N=C\c1ccc(C2CCNCC2)cc1 | > 200 µM | > 200 µM | 
COc1ccc(-c2cc(=O)c3c(O)cc(O)c(-c4cc(-c5cc(=O)c6c(O)cc(OC)cc6o5)ccc4OC)c3o2)cc1 | > 200 µM | 107 µM | 
NS(=O)(=O)c1nnc(NC(=O)C23CC4CC(CC(C4)C2)C3)s1 | > 200 µM | 81.3 µM | 
CCCCNC(=S)SSSSC(=S)NCCCC | > 200 µM | 11.2 µM | 
CC(=O)Oc1cc(O)c2c(=O)c(OC(C)=O)c(-c3ccc(OC(C)=O)c(OC(C)=O)c3)oc2c1 | > 200 µM | 33.9 µM | 
COC(=O)C(=O)/C=C(/O)c1c(C)[nH]c2ccccc12 | > 200 µM | > 200 µM | 
CCCC/C=C(/CCCBr)[Si](C)(C)C | > 339 µM | > 339 µM | 
O=C(O)C1=C(C(=O)O)C2c3ccccc3C1c1ccccc12 | > 200 µM | > 200 µM | 
CN(C)C(=S)N/N=C\C(=N/NC(=S)N(C)C)c1ccccc1 | > 200 µM | 12.9 µM | 
COC(=O)c1ccccc1CC(Cc1ccc2c(c1)CCC2)C(=O)OC (configuration not stated) | > 200 µM | 56.2 µM | 
COC(=O)Cc1ccc2c(c1)Sc1ccc(CC(=O)OC)cc1N2C | > 200 µM | 4.47 µM | 
CCN(CC)/[N+]([O-])=N/OCC(C)O (configuration not stated) | > 8130 µM | > 8130 µM | 
CC1=C(C(=O)Nc2cccc(Cl)c2)C(c2ccccc2F)C(C(=O)Nc2cccc(Cl)c2)=C(C)N1 | > 14.1 µM | > 14.1 µM | 
CN(C)CCN(C)P12(Oc3ccccc3O1)Oc1c(Cl)c(Cl)c(Cl)c(Cl)c1O2 | > 43.7 µM | 24.5 µM | 
CC(=O)Nc1ccc(C(=O)NN2C(=O)C(Cl)C2c2ccccc2O)cc1 (configuration not stated) | > 200 µM | 31.6 µM | 
CC1NCCc2c1[nH]c1ccc(O)cc21 (configuration not stated) |  |  | inactive
